The values that follow come from patent EP4285905A1, “CABERGOLINE OR A PHARMACEUTICALLY ACCEPTABLE SALT OR SOLVATE THEREOF, FOR USE IN PREVENTION OR DELAY OF POST-PREGNANCY BREAST CANCER IN A FEMALE MAMMAL” (Consejo Superior de Investigaciones Cientificas, priority 2022, dated 2023).

This assay deals with recombinant (RFP+) cells. The assay can be described thus: Flow cytometry of RFP+ recombinant mammary epithelial subpopulations. The assay is classed as in vivo, mice. The following applies: 60 days after weaning. An excerpt: The mouse model used for the cytometry studies was obtained by crossing the conditional model K14Cre; Brca1^F/F; P53^F/F with a model that expresses red fluorescent protein (RFP) under the promoter of the ROSA26 locus. This promoter has a stop codon flanked by LoxP sites that recognize Cre-recombinase. In this way, cells that lose Brca1 (gene) and P53 (gene) due to the action of Cre-recombinase also express RFP and emit fluorescence. The mouse was obtained from the European repository (European mutant mouse archive - EMMA) and was generated by the group of Hans Jörg Fehling from the Institute of Immunology of the Clinical University of Ulm, Germany. For these studies, between 6 and 11 mice from the different study groups were used.
Once the mouse mammary glands were removed, they were incubated in a 50 mL tube containing 9 mL of medium (Gibco DMEM/F-12, #11554546, Fisher Scientific), 500 µL of collagenase and 500 µL of hyaluronidase, at a temperature of 37 °C for 16 hours. After incubation, the aggregated tissue debris was disrupted by pipetting for approximately 30 seconds and the sample was centrifuged for 5 minutes at 350 g at room temperature. Centrifugation was performed, in all examples, using the Eppendorf 5804R refrigerated centrifuge including an A-44 rotor with a radius of 15 cm (width (metric) exterior 634 mm; depth (metric) 550 mm, height (metric) exterior 342 mm). The supernatant was discarded and the pellet formed was resuspended in 2 mL of ACK buffer (Gibco ACK Lysing Buffer, #A10492-01, Fisher Scientific) to lyse the erythrocytes present in the sample. The disaggregated sample was incubated in ACK buffer for 5 minutes at room temperature and subsequently centrifuged at 350 g for 5 minutes. After centrifugation, the supernatant was discarded and 1 mL of trypsin was added at 37 °C. The pellet was resuspended by pipetting for 2 minutes. Next, 10 mL of saline (Gibco HBSS, #14025-092, Fisher Scientific) supplemented with 10 mM HEPES buffer and fetal bovine serum was added and centrifuged for 5 minutes at 350 g at room temperature. Then, the supernatant was discarded and 1 mL of the buffered saline solution (hereinafter HF) and 100 µL of warm DNase were added, carefully pipetted for 1 minute and 5 mL of cold HF was added, to stop action of the DNase. The mixture was filtered through a 40 µm filter and washed with 5 mL of cold HF. It was centrifuged for 5 minutes at 350 g, at a temperature of 4 °C and the supernatant was removed after centrifugation. Subsequently, the mixture was resuspended in 5 mL of cold HF and the mixture was distributed in cytometry tubes with a 35 µm filter. 4/5 of the sample was allocated for immunolabeling and the remaining 1/5 was allocated as an unlabelled control. It was centrifuged for 5 minutes at 1200 rpm (= 20 s^-1) at a temperature of 4 °C and the supernatant was decanted after centrifugation. Subsequently, 52 µL of blocking solution, consisting of 50 µL of HF and 2 µL of anti-CD16/CD32 antibody, were added, gently vortexed and incubated for 10 minutes at 4 °C. Next, 50 µL of immuno-labelling solution made up of the following antibodies: CD45 FITC, CD140 FITC, CD31 FITC, Ter119 FITC, CD49fAPC, CD29 APC-Cy7, CD61 BV421, Sca1 PerCP-Cy5, EpCAM PE- Cy7, e506, was added to the tube intended for staining and 50 µL of HF was added to the control tube. After incubating for 30 minutes and performing a wash, the samples were acquired with the LSR Fortessa X-20 Cell Analyzer cytometer (BD Biosciences). […]
(In general: A flow cytometer gives signals particle by particle.)

The mark [1] stands for this setting: KO-RFP+ group, vs nulliparous and lactating multiparous mice.
Setting [2] is: treated vs untreated multiparous mice.

Take `C=CCN1C[C@H](C(=O)N(CCCN(C)C)C(=O)NCC)C[C@@H]2c3cccc4[nH]cc(c34)C[C@H]21` [cabergoline, 1-[(6-allylergolin-8ß-yl)-carbonyl]-1-[3-(dimethylamino)propyl]-3-ethylurea]: under setting [1], the “ductal precursor cells (CD61+) with respect to total recombinant ductal cells” value is “relative increase in precursors” and the “mature ductal cells (CD61-) with respect to total recombinant ductal cells” value is “relative decrease in mature ductal cells”. Under setting [2], the “ductal cell subpopulations with respect to total recombinant epithelial cells” value is given as “no statistically significant differences”; the “proportion of luminal and basal cells within recombinant cells (RFP+)” value is reported as “No significant differences”; the “proportion of luminal ductal cells (Sca1+) within recombinant luminal cells” value is “no significant differences”.
